# Measurements taken from US11844801B2, “Oral compositions of MK2 pathway inhibitor for treatment of immune conditions” (priority 2020, dated 2023).
# How the values were obtained:
# [1] = in vivo; cited from earlier work
# [2] = Phase 2a RA study: Hand-Wrist MRI RAMRIS and CARLOS; type: in vivo, human; settings: for Carlos Cartilage Loss, mean / RAMRIS Erosion Score, mean / RAMRIS Osteitis Score, mean / RAMRIS Synovitis Score, mean / Carlos Cartilage Loss, change from baseline, mean / RAMRIS Erosion Score, change from baseline, mean / RAMRIS Osteitis Score, change from baseline, mean / RAMRIS Synovitis Score, change from baseline, mean: n = 15
# IL-6 [3] = assay: IL-1β stimulated IL-6 production in human whole blood; type: cell-based
# Procedure: Compounds were serially diluted in 100% DMSO (Sigma-Aldrich, D2650) followed by a 10× dilution into RPMI (Gibco, 11875). After the one-hour incubation with the compounds or vehicle, 2 μL of IL-1β (R&D, 201-LB-010) in RPMI (Gibco, 11875) was added for a final concentration of 0.5 μg/mL to each well except for the no stimulus wells. […]
# TNF-α = assay: Porcine whole blood LPS stimulated TNF-α assay; type: cell-based; settings: Sus scrofa, Pig Whole Blood, 10 µg/mL, 4 hr
# Procedure: Porcine LPS stimulated TNF-α Assay—Porcine whole blood was collected into heparinized vacutainers then transferred into conical tubes and shipped overnight on wet ice. Porcine whole blood was aliquoted (160 μL/well) into round bottom 96 well tissue culture plates. Compounds were serially diluted in 100% DMSO (Sigma-Aldrich, D2650) followed by a 100× dilution into RPMI/10% FBS (Gibco, 11875/26140). The diluted compounds were then added to each plate in duplicate 20 μL aliquots for final concentrations ranging from 10 μM to 1 pM. DMSO final concentration was 0.1%. After a one-hour incubation at 37° C. with 5% CO2, 20 μL of LPS (Sigma-Aldrich, L2630), in RPMI/10% FBS (Gibco, 11875/26140) was added for a final concentration of 10 μg/mL to each well except for the no stimulus wells. After four hours of incubation with LPS, plasma was harvested by centrifugation at 1,800×g for five minutes. The plasmas were assayed for TNF-α levels using a porcine specific TNF-α Quantikine ELISA kit (R&D, PTA00) according to the kit protocol.
# IL-8 = assay: IL-1β stimulated IL-8 production in human whole blood; type: cell-based
# Procedure: Compounds were serially diluted in 100% DMSO (Sigma-Aldrich, D2650) followed by a 10× dilution into RPMI (Gibco, 11875). After the one-hour incubation with the compounds or vehicle, 2 μL of IL-1β (R&D, 201-LB-010) in RPMI (Gibco, 11875) was added for a final concentration of 0.5 μg/mL to each well except for the no stimulus wells. After six hours of incubation with IL-1β, plasma was harvested and assayed for TNF-α, IL-6 and IL-8 using Meso Scale Discovery Technology V-plex human cytokine kits according to the kit protocol.
# IL-6 [4] = assay: Rat whole blood LPS stimulated IL-6; type: cell-based; settings: 100 ng/mL, 4 hr
# [5] = most severe hand, baseline, 50 mg BID arm
# [6] = most severe hand, week 12, 50 mg BID
# [7] = other hand, baseline, 50 mg BID arm
structure (smiles),measurement,setting,value
"Cc1cnc(-c2ccnc(C(C)(C)O)n2)cc1-n1c(C)cc(OCc2ncc(F)cc2F)c(Cl)c1=O (single isomer, unassigned) [ATI-450, 3-chloro-4-((3,5-difluoropyridin-2-yl)methoxy)-2′-(2-(2-hydroxypropan-2-yl)pyrimidin-4-yl)-5′,6-dimethyl-2H-[1,4′-bipyridin]-2-one]",effect in rat streptococcal cell wall arthritis model,[1],joint protective effects and preserved bone mineral density
same,joint destruction and synovitis by MRI,"[2]; 50 mg BID plus MTX, 12 weeks",prevents the progression of joint destruction and provides significant improvement in synovitis
same,"Carlos Cartilage Loss, mean",[2]; [5],7.6
same,"RAMRIS Erosion Score, mean",[2]; [5],13.27
same,"RAMRIS Osteitis Score, mean",[2]; [5],2.93
same,"RAMRIS Synovitis Score, mean",[2]; [5],6.1
same,"Carlos Cartilage Loss, change from baseline, mean",[2]; [6],0.03
same,"Carlos Cartilage Loss, mean",[2]; [6],7.63
same,"RAMRIS Erosion Score, change from baseline, mean",[2]; [6],0.63
same,"RAMRIS Erosion Score, mean",[2]; [6],13.9
same,"RAMRIS Osteitis Score, change from baseline, mean",[2]; [6],0.9
same,"RAMRIS Osteitis Score, mean",[2]; [6],3.83
same,"RAMRIS Synovitis Score, change from baseline, mean",[2]; [6],−0.17
same,"RAMRIS Synovitis Score, mean",[2]; [6],5.93
same,"Carlos Cartilage Loss, mean",[2]; [7],7.45
same,"RAMRIS Erosion Score, mean",[2]; [7],13.3
same,"RAMRIS Osteitis Score, mean",[2]; [7],2.4
same,"RAMRIS Synovitis Score, mean",[2]; [7],4.07
same,"Carlos Cartilage Loss, change from baseline, mean","[2]; other hand, week 12, 50 mg BID",0
same,"Carlos Cartilage Loss, mean","[2]; other hand, week 12, 50 mg BID",7.45
same,"RAMRIS Erosion Score, change from baseline, mean","[2]; other hand, week 12, 50 mg BID",−0.27
same,"RAMRIS Erosion Score, mean","[2]; other hand, week 12, 50 mg BID",13.03
same,"RAMRIS Osteitis Score, change from baseline, mean","[2]; other hand, week 12, 50 mg BID",1
same,"RAMRIS Osteitis Score, mean","[2]; other hand, week 12, 50 mg BID",3.4
same,"RAMRIS Synovitis Score, change from baseline, mean","[2]; other hand, week 12, 50 mg BID",0.33
same,"RAMRIS Synovitis Score, mean","[2]; other hand, week 12, 50 mg BID",4.4
same,IC50,"IL-6 [3]; Human Whole Blood, IL-1β, 10 ng/mL, 5 hr",11.1 ± 3.8 nM
same,IC80,IL-6 [3]; human whole blood,0.041 ± 0.02 µg/mL
same,IC50,TNF-α,7.4 nM
same,IC80,IL-8,0.04 ± 0.012 µg/mL
same,IC50,IL-6 [4],28.3 ± 1.2 nM
